These results are taken from patent publication US10597388B2, “Pyridazinone herbicides” (FMC CORPORATION, priority 2014, dated 2020).

Read-outs that look alike come from different tables or passages of the source.

Series [1] concerns ducksalad (Heteranthera limosa). In words: Test B flooded paddy test. It is filed as in vivo. The settings on record: Heteranthera limosa, 360 h; 250 g ai/ha, Flood; visual rating on scale of 0 to 100 where 0 is no effect and 100 is complete control; 13 to 15 d after treatment; read-out: Plant response rating, Ducksalad. The essentials: (§1)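 Plants at the 2-leaf stage were flooded to 3 cm above soil, and test compounds were applied directly into the paddy water, which was held at that depth throughout. After 13 to 15 d in a greenhouse, injury was rated visually against untreated controls on a 0–100 scale (0 no effect, 100 complete control).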

Series [2] relates to barnyardgrass (Echinochloa crus-galli). The series can be described thus: Test B flooded paddy test. Format: in vivo. The settings on record: Echinochloa crus-galli, 360 h; 250 g ai/ha, Flood; visual rating on scale of 0 to 100 where 0 is no effect and 100 is complete control; 13 to 15 d after treatment; read-out: Plant response rating, Barnyardgrass. The essentials: as §1
Series [3] deals with sedge, umbrella (small-flower umbrella sedge, Cyperus difformis). In words: Test B flooded paddy test. It is filed as in vivo. Particulars: Cyperus difformis, 360 h; 250 g ai/ha, Flood; visual rating on scale of 0 to 100 where 0 is no effect and 100 is complete control; 13 to 15 d after treatment; read-out: Plant response rating, Sedge, Umbrella. The essentials:
as §1

For another series, the system named is rice (Oryza sativa). In words: Test B flooded paddy test. It is filed as in vivo. Particulars: Oryza sativa, 360 h; 250 g ai/ha, Flood; visual rating on scale of 0 to 100 where 0 is no effect and 100 is complete control; 13 to 15 d after treatment; read-out: Plant response rating, Rice. An outline of the steps: as §1
Series [4] concerns velvetleaf (Abutilon theophrasti). The series can be described thus: Test A greenhouse herbicide test, pre- and postemergence. It is filed as in vivo. The settings on record: 240 h, 1000 g ai/ha, 0 to 100 scale. An outline of the steps:
(§2)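 Seeds sown in loam–sand blend got a preemergence directed soil spray of compound in non-phytotoxic solvent with surfactant. Postemergence treatment was given at 2–10 cm, one- to two-leaf stage. After ~10 d in greenhouse, injury was rated visually vs untreated controls, 0 (no effect) to 100 (complete control).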

The test system of series [5] is barnyardgrass (Echinochloa crus-galli). The description is as above. It is filed as in vivo. The settings on record: Echinochloa crus-galli, 240 h, 1000 g ai/ha, 0 to 100 scale. The essentials: as §2
The subject of a further series is corn (Zea mays). The series is described as above. Format: in vivo. Particulars: Zea mays, 240 h, 1000 g ai/ha, 0 to 100 scale; for plant injury at 1000 g/ha: post-emergence, Postemergence, 0 is no effect, 100 is complete control, read-out: Corn plant response rating; for Corn plant response rating (crop injury, 0 = no effect, 100 = complete kill) at 1000 g/ha: pre-emergence, Preemergence, 100 complete control. The essentials:
as §2

The test system of series [6] is pigweed (Amaranthus retroflexus). The description is as above. It is filed as in vivo. The settings on record: Amaranthus retroflexus, 240 h, 1000 g ai/ha, 0 to 100 scale. The essentials: as §2
Series [7] relates to wheat (Triticum aestivum). The series is described as above. Particulars: Triticum aestivum, 240 h, 1000 g ai/ha, 0 to 100 scale. Format: in vivo. An outline of the steps: as §2
Series [8] has as its system momingglory (Ipomoea spp.). The series is described as above. It is filed as in vivo. Particulars: 240 h, 1000 g ai/ha, 0 to 100 scale. The essentials: as §2
Series [9] has as its system crabgrass, large (large crabgrass, Digitaria sanguinalis). The series is described as above. It is filed as in vivo. The settings on record: 240 h, 1000 g ai/ha, 0 to 100 scale. The essentials: as §2
The subject of series [10] is foxtail, giant (giant foxtail, Setaria faberii). The series is described as above. Particulars: Setaria faberi, 240 h, 1000 g ai/ha, 0 to 100 scale. Format: in vivo. An outline of the steps: as §2
Where [11] appears, read: post-emergence, Postemergence, 0 is no effect, 100 is complete control, read-out: Velvetleaf plant response rating.
Setting [12] is: pre-emergence, Preemergence, 0 no effect, 100 complete control, read-out: Plant response rating, Velvetleaf.
The mark [13] stands for this setting: post-emergence, Postemergence, 0 is no effect, 100 is complete control, read-out: Barnyardgrass plant response rating.
Setting [14] is: pre-emergence, Preemergence, 0 no effect, 100 complete control, read-out: Plant response rating, Barnyardgrass.
[15] abbreviates: post-emergence, Postemergence, 0 is no effect, 100 is complete control, read-out: Pigweed plant response rating.
[16] abbreviates: pre-emergence, Preemergence, 0 no effect, 100 complete control, read-out: Plant response rating, Pigweed.
Setting [17] is: post-emergence, Postemergence, 0 is no effect, 100 is complete control, read-out: Wheat plant response rating.
[18] abbreviates: pre-emergence, Preemergence, 0 no effect, 100 complete control, read-out: Plant response rating, Wheat.
Where [19] appears, read: post-emergence, Postemergence, 0 is no effect, 100 is complete control, read-out: Morningglory plant response rating.
Setting [20] is: pre-emergence, Preemergence, 0 no effect, 100 complete control, read-out: Plant response rating, Morningglory.
Setting [21] is: post-emergence, Postemergence, 0 is no effect, 100 is complete control, read-out: Crabgrass, Large plant response rating.
The mark [22] stands for this setting: pre-emergence, Preemergence, 0 no effect, 100 complete control, read-out: Plant response rating, Crabgrass, Large.
The mark [23] stands for this setting: post-emergence, Postemergence, 0 is no effect, 100 is complete control, read-out: Foxtail, Giant plant response rating.
Where [24] appears, read: pre-emergence, Preemergence, 0 no effect, 100 complete control, read-out: Plant response rating, Foxtail, Giant.

Usually melting point stands for the temperature of the solid-liquid transition. In the case of `Cc1cc(C)c2c(-c3c(O)c(C)nn(C)c3=O)c(C)sc2c1` [Compound 3, 5-hydroxy-2,6-dimethyl-4-(2,4,6-trimethylbenzo[b]thien-3-yl)-3(2H)-pyridazinone], the melting point lay in the range of 224 to 227 °C. Moreover, the pest or weed control at 250 g/ha in [1] amounted to 20%. The pest or weed control at 250 g/ha in [2] was determined as 0%. The pest or weed control at 250 g/ha in [3] stood at 0%. The plant injury at 250 g/ha in the series with rice (Oryza sativa) is 0%. The pest or weed control at 1000 g/ha in series [4] (setting [11]) was determined as 70%. In addition, the pest or weed control at 1000 g/ha in [4] (setting [12]) amounted to 70%. Moreover, the pest or weed control at 1000 g/ha in [5] (setting [13]) worked out at 50%. Besides, the pest or weed control at 1000 g/ha in series [5] (setting [14]) stood at 80%. In the series on corn (Zea mays), the plant injury at 1000 g/ha is 0% and the Corn plant response rating (crop injury, 0 = no effect, 100 = complete kill) at 1000 g/ha came out at 0%. The pest or weed control at 1000 g/ha in series [6] (setting [15]) amounted to 0%. For the same molecule, the pest or weed control at 1000 g/ha in [6] (setting [16]) was determined as 0%. Also, the plant injury at 1000 g/ha in series [7] (setting [17]) was determined as 0%. For the same molecule, in [7] (setting [18]), the plant injury at 1000 g/ha was 0%. Moreover, in series [8] (setting [19]), the pest or weed control at 1000 g/ha came out at 90%. Also, in [8] (setting [20]), the pest or weed control at 1000 g/ha amounted to 80%. Besides, the pest or weed control at 1000 g/ha in series [9] (setting [21]) amounted to 10%. Further, the pest or weed control at 1000 g/ha in series [9] (setting [22]) was found to be 80%. Besides, the pest or weed control at 1000 g/ha in series [10] (setting [23]) is 10%. Further, the pest or weed control at 1000 g/ha in [10] (setting [24]) is 60%.

`Cc1nn(C)c(=O)c(-c2c(C)oc3ccccc23)c1O` [Compound 4, 5-hydroxy-2,6-dimethyl-4-(2-methyl-3-benzofuranyl)-3 (2H)-pyridazinone] showed a melting point of 238 to 240 °C. Moreover, the pest or weed control at 250 g/ha in series [1] came to 0%. Moreover, the pest or weed control at 250 g/ha in series [2] amounted to 0%. The pest or weed control at 250 g/ha in series [3] was 0%. Further, in the series with rice (Oryza sativa), the plant injury at 250 g/ha was determined as 0%. In series [4] (setting [11]), the pest or weed control at 1000 g/ha was determined as 60%. Moreover, the pest or weed control at 1000 g/ha in series [4] (setting [12]) worked out at 40%. Also, the pest or weed control at 1000 g/ha in series [5] (setting [13]) was determined as 70%. Besides, in series [5] (setting [14]), the pest or weed control at 1000 g/ha was 100%. In the series with corn (Zea mays), the plant injury at 1000 g/ha came to 0% and the Corn plant response rating (crop injury, 0 = no effect, 100 = complete kill) at 1000 g/ha is 10%. For the same molecule, the pest or weed control at 1000 g/ha in series [6] (setting [15]) is 50%. Further, the pest or weed control at 1000 g/ha in series [6] (setting [16]) stood at 70%. Also, the plant injury at 1000 g/ha in series [7] (setting [17]) was 0%. The plant injury at 1000 g/ha in series [7] (setting [18]) is 0%. Also, the pest or weed control at 1000 g/ha in [8] (setting [19]) was 70%. Moreover, the pest or weed control at 1000 g/ha in [8] (setting [20]) turned out to be 60%. Also, the pest or weed control at 1000 g/ha in series [9] (setting [21]) amounted to 50%. Moreover, the pest or weed control at 1000 g/ha in series [9] (setting [22]) was 80%. Besides, in [10] (setting [23]), the pest or weed control at 1000 g/ha came out at 80%. Further, the pest or weed control at 1000 g/ha in series [10] (setting [24]) turned out to be 80%.
